According to patent US12679878B2, “CRF2 receptor agonists and their use in therapy” (SANOFI, priority 2020, dated 2026):
Like-named read-outs stand apart in the source and are kept apart here. Starred links: 1 amine or outer side, 2 acyl side, 3 side chain; linkers in the order of their positions; H or OH if unused. Non-standard residues stand in square brackets, D forms with d. Residues, ends and D or L forms follow the SMILES beside them. Groups on a side chain read outwards from the residue. *: point of attachment. C18 diacid = O=C(O)CCCCCCCCCCCCCCCCC(=O)*; γGlu = O=C(O)[C@H](CCC(=O)[*:2])N[*:1]; AEEA = NCCOCCOCC(=O)O; Aib = CC(C)(N)C(=O)O

Biological target: T1, human CRF2α receptor (Homo sapiens, UniProt Q13324)
T1 construct: expressed in transfected cells; host or cells: TeloHEAC
T1 sequence (Q13324 1-411): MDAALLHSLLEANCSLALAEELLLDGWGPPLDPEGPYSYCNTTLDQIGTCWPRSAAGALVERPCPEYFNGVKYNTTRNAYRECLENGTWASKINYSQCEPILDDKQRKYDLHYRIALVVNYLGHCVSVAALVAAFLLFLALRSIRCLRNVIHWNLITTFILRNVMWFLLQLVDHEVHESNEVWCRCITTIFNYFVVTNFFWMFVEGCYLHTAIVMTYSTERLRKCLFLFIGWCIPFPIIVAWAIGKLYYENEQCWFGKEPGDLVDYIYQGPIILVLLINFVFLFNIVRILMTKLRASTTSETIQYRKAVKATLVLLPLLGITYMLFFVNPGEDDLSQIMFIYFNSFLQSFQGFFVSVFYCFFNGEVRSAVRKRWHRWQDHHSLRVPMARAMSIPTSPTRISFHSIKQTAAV
Assay: cAMP agonism at human CRF2 α receptor in TeloHEAC cells (Example 7)
Assay type: cell-based
Conditions: cAMP HTRF, TeloHEAC cells stably expressing human CRF2 α
Summary of the method: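 HTRF ratio 665/620 nm, read 1 h after lysis reagents, reports cAMP. Cells: thawed stocks, 2000/well, 30 min RT with compound in HBSS, 20 mM HEPES, 0 or 0.1% HSA, 2 mM IBMX. Activity normalised to UCN2 1000 nM = 100%; EC50 from half-maximal activation.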

[1] = 0% HSA, read-out: EC50 [nM], 0% HSA
[2] = 0.1% HSA, read-out: EC50 [nM], 0.1% HSA

| SMILES | EC50 [1] [nM] | EC50 [2] [nM] |
| --- | --- | --- |
| CC[C@H](C)[C@H](N)C(=O)N[C@H](C(=O)N[C@@H](CC(C)C)C(=O)N[C@@H](CO)C(=O)N[C@@H](CC(C)C)C(=O)N[C@@H](CC(=O)O)C(=O)N[C@H](C(=O)N1CCC[C@H]1C(=O)N[C@H](C(=O)N[C@@H](CCCCN)C(=O)N[C@@H](CC(C)C)C(=O)N[C@@H](CCCCNC(=O)COCCOCCNC(=O)COCCOCCNC(=O)CC[C@H](NC(=O)CCCCCCCCCCCCCCCCC(=O)O)C(=O)O)C(=O)N[C@@H](CCC(N)=O)C(=O)N[C@H](C(=O)N[C@@H](CC(C)C)C(=O)N[C@@H](CC(C)C)C(=O)N[C@@H](CCCCN)C(=O)N[C@@H](CCC(N)=O)C(=O)N[C@@H](CCC(=O)O)C(=O)N[C@@H](CCCNC(=N)N)C(=O)N[C@@H](CCC(N)=O)C(=O)N[C@@H](CCCCN)C(=O)NC(C)(C)C(=O)N[C@@H](CCC(N)=O)C(=O)N[C@@H](CCCNC(=N)N)C(=O)N[C@@H](CCC(=O)O)C(=O)N[C@@H](CCC(N)=O)C(=O)N[C@@H](C)C(=O)N[C@@H](CCC(=O)O)C(=O)N[C@@H](CCCCN)C(=O)N[C@@H](CC(N)=O)C(=O)N[C@@H](CCCCN)C(=O)N[C@@H](CCC(N)=O)C(=O)N[C@H](C(=O)N[C@@H](CC(C)C)C(=O)N[C@@H](CCC(=O)O)C(=O)N[C@@H](CCCNC(=N)N)C(=O)N[C@H](C(N)=O)C(C)C)[C@@H](C)CC)[C@@H](C)CC)[C@@H](C)CC)C(C)C)C(C)C [compound 115] (H-IVLSLDVPIKLK([AEEA-AEEA-γGlu-C18 diacid])QILLKQERQK[Aib]QREQAEKNKQILERV-NH2; N-terminus assumed) | 2.77 | – |
| CC[C@H](C)[C@H](N)C(=O)N[C@H](C(=O)N[C@@H](CC(C)C)C(=O)N[C@@H](CO)C(=O)N[C@@H](CC(C)C)C(=O)N[C@@H](CC(=O)O)C(=O)N[C@H](C(=O)N1CCC[C@H]1C(=O)N[C@H](C(=O)N[C@@H](CCCCN)C(=O)N[C@@H](CC(C)C)C(=O)N[C@@H](CCCCNC(=O)COCCOCCNC(=O)COCCOCCNC(=O)CC[C@H](NC(=O)CCCCCCCCCCCCCCCCC(=O)O)C(=O)O)C(=O)N[C@@H](CCC(N)=O)C(=O)N[C@H](C(=O)N[C@@H](CC(C)C)C(=O)N[C@@H](CC(C)C)C(=O)N[C@@H](CCCCN)C(=O)N[C@@H](CCC(N)=O)C(=O)N[C@@H](CCC(=O)O)C(=O)N[C@@H](CCCNC(=N)N)C(=O)N[C@@H](CCC(N)=O)C(=O)N[C@@H](CCCCN)C(=O)N[C@@H](CCCCN)C(=O)N[C@@H](CCC(N)=O)C(=O)N[C@@H](CCCNC(=N)N)C(=O)N[C@@H](CCC(=O)O)C(=O)N[C@@H](CCC(N)=O)C(=O)N[C@@H](C)C(=O)N[C@@H](CCC(=O)O)C(=O)N[C@@H](CCCCN)C(=O)N[C@@H](CC(N)=O)C(=O)N[C@@H](CCCCN)C(=O)N[C@@H](CCC(N)=O)C(=O)N[C@H](C(=O)N[C@@H](CC(C)C)C(=O)N[C@@H](CCC(=O)O)C(=O)N[C@@H](CCC(N)=O)C(=O)N[C@H](C(N)=O)C(C)C)[C@@H](C)CC)[C@@H](C)CC)[C@@H](C)CC)C(C)C)C(C)C [compound 120] (H-IVLSLDVPIKLK([AEEA-AEEA-γGlu-C18 diacid])QILLKQERQKKQREQAEKNKQILEQV-NH2) | 1.27 | 61.1 |
| CC[C@H](C)[C@H](N)C(=O)N[C@H](C(=O)N[C@@H](CC(C)C)C(=O)N[C@@H](CO)C(=O)N[C@@H](CC(C)C)C(=O)N[C@@H](CC(=O)O)C(=O)N[C@@H](C(=O)N1CCC[C@H]1C(=O)N[C@H](C(=O)N[C@@H](CCCCN)C(=O)N[C@@H](CC(C)C)C(=O)N[C@@H](CCCCNC(=O)COCCOCCNC(=O)COCCOCCNC(=O)CC[C@H](NC(=O)CCCCCCCCCCCCCCCCC(=O)O)C(=O)O)C(=O)N[C@@H](CCC(N)=O)C(=O)N[C@H](C(=O)N[C@@H](CC(C)C)C(=O)N[C@@H](CC(C)C)C(=O)N[C@@H](CCC(=O)O)C(=O)N[C@@H](CCC(N)=O)C(=O)N[C@@H](C)C(=O)N[C@@H](CCCCN)C(=O)N[C@@H](CCC(N)=O)C(=O)N[C@@H](CCCCN)C(=O)NC(C)(C)C(=O)N[C@@H](CCC(N)=O)C(=O)N[C@@H](CCCNC(=N)N)C(=O)N[C@@H](CCC(=O)O)C(=O)N[C@@H](CCC(N)=O)C(=O)N[C@@H](C)C(=O)N[C@@H](CCC(=O)O)C(=O)N[C@@H](CCCCN)C(=O)N[C@@H](CC(N)=O)C(=O)N[C@@H](CCCCN)C(=O)N[C@@H](CCCNC(=N)N)C(=O)N[C@H](C(=O)N[C@@H](CC(C)C)C(=O)N[C@@H](CCC(=O)O)C(=O)N[C@@H](CCCNC(=N)N)C(=O)N[C@H](C(N)=O)C(C)C)[C@@H](C)CC)[C@@H](C)CC)[C@@H](C)CC)C(C)C)C(C)C [compound 127] (H-IVLSLD[dV]PIKLK([AEEA-AEEA-γGlu-C18 diacid])QILLEQAKQK[Aib]QREQAEKNKRILERV-NH2; N-terminus assumed) | 0.16 | 5.14 |
| CC[C@H](C)[C@H](N)C(=O)N[C@H](C(=O)N[C@@H](CC(C)C)C(=O)N[C@@H](CO)C(=O)N[C@@H](CC(C)C)C(=O)N[C@@H](CC(=O)O)C(=O)N[C@@H](C(=O)N1CCC[C@H]1C(=O)N[C@H](C(=O)N[C@@H](CCCCN)C(=O)N[C@@H](CC(C)C)C(=O)N[C@@H](CCCCNC(=O)COCCOCCNC(=O)COCCOCCNC(=O)CC[C@H](NC(=O)CCCCCCCCCCCCCCCCC(=O)O)C(=O)O)C(=O)N[C@@H](CCC(N)=O)C(=O)N[C@H](C(=O)N[C@@H](CC(C)C)C(=O)N[C@@H](CC(C)C)C(=O)N[C@@H](CCCCN)C(=O)N[C@@H](CCC(N)=O)C(=O)N[C@@H](C)C(=O)N[C@@H](CCCNC(=N)N)C(=O)N[C@@H](CCC(N)=O)C(=O)N[C@@H](CCCCN)C(=O)NC(C)(C)C(=O)N[C@@H](CCC(N)=O)C(=O)N[C@@H](CCCNC(=N)N)C(=O)N[C@@H](CCC(=O)O)C(=O)N[C@@H](CCC(N)=O)C(=O)N[C@@H](C)C(=O)N[C@@H](CCC(=O)O)C(=O)N[C@@H](CCCCN)C(=O)N[C@@H](CC(N)=O)C(=O)N[C@@H](CCCCN)C(=O)N[C@@H](CCCNC(=N)N)C(=O)N[C@H](C(=O)N[C@@H](CC(C)C)C(=O)N[C@@H](CCC(=O)O)C(=O)N[C@@H](CCCNC(=N)N)C(=O)N[C@H](C(N)=O)C(C)C)[C@@H](C)CC)[C@@H](C)CC)[C@@H](C)CC)C(C)C)C(C)C [compound 128] (H-IVLSLD[dV]PIKLK([AEEA-AEEA-γGlu-C18 diacid])QILLKQARQK[Aib]QREQAEKNKRILERV-NH2; N-terminus assumed) | 0.64 | 20.1 |
| CC[C@H](C)[C@H](N)C(=O)N[C@H](C(=O)N[C@@H](CC(C)C)C(=O)N[C@@H](CO)C(=O)N[C@@H](CC(C)C)C(=O)N[C@@H](CC(=O)O)C(=O)N[C@@H](C(=O)N1CCC[C@H]1C(=O)N[C@H](C(=O)N[C@@H](CCCCN)C(=O)N[C@@H](CC(C)C)C(=O)N[C@@H](CCCCNC(=O)COCCOCCNC(=O)COCCOCCNC(=O)CC[C@H](NC(=O)CCCCCCCCCCCCCCCCC(=O)O)C(=O)O)C(=O)N[C@@H](CCC(N)=O)C(=O)N[C@H](C(=O)N[C@@H](CC(C)C)C(=O)N[C@@H](CC(C)C)C(=O)N[C@@H](CCC(=O)O)C(=O)N[C@@H](CCC(N)=O)C(=O)N[C@@H](CCC(=O)O)C(=O)N[C@@H](CCCNC(=N)N)C(=O)N[C@@H](CCC(N)=O)C(=O)N[C@@H](CCCCN)C(=O)NC(C)(C)C(=O)N[C@@H](CCC(N)=O)C(=O)N[C@@H](CCCNC(=N)N)C(=O)N[C@@H](CCC(=O)O)C(=O)N[C@@H](CCC(N)=O)C(=O)N[C@@H](C)C(=O)N[C@@H](CCC(=O)O)C(=O)N[C@@H](CCCCN)C(=O)N[C@@H](CC(N)=O)C(=O)N[C@@H](CCCCN)C(=O)N[C@@H](CCC(N)=O)C(=O)N[C@H](C(=O)N[C@@H](CC(C)C)C(=O)N[C@@H](C)C(=O)N[C@@H](CCC(N)=O)C(=O)N[C@H](C(N)=O)C(C)C)[C@@H](C)CC)[C@@H](C)CC)[C@@H](C)CC)C(C)C)C(C)C [compound 129] (H-IVLSLD[dV]PIKLK([AEEA-AEEA-γGlu-C18 diacid])QILLEQERQK[Aib]QREQAEKNKQILAQV-NH2) | 0.15 | 3.02 |
